Holding throughout (format): cell-based, human
Test [1] deals with MMP-2. In words: MMP activity of non-stimulated skin explants (gelatin zymography), MMP-2. The conditions noted are these: 10 μg/ml, 48 hours. On the procedure: (§1) Skin explants from a skin of the belly of a person were cultivated in a DMEM medium without phenol red (GIBCO) under stirring at 37° C. for 48 hours with different treatments. The samples were treated with a concentration of 10 μg/ml.
(§2) Extracellular medium-1 ml of medium
(§3) Intracellular medium-explant ground with ultraturax in 1 ml of MMP buffer
(§4) 0.1 M Tris-HCl, pH 7.5, 0.1 M NaCl, 10 mM CaCl2, 1 mM zinc acetate
(§5) Gelatin, substrate of the MMP-s, was co-polymerized at final 1 mg/ml with a gel of polyacrylamide at 10%. The extracellular media from the cultures of skin explant were deposited on the top of the gel, the electrophoresis was carried out at 150 volts. The gels were then incubated in MMP buffer for 24 hours under stirring at 37° C. The gels were then colored with Coomassie blue, then uncolored with distilled water. The lise ranges corresponding to an MMP activity, appeared as white, while the background of the gel was blue. In function of the distance of migration of proteins, one could determine the molecular weights of the enzymes having digested the gelatin. The MMP activity was quantified by morphometric analysis with the aid of a Visiolab computer.

Test [2] deals with MMP-9. Put plainly: MMP activity of skin explants stimulated with hyaluronane (gelatin zymography), MMP-9. The conditions noted are these: skin explants stimulated with 1 mg/ml of hyaluronane, 10 μg/ml. On the procedure:
as §1
as §5, with “computer. […]” for “computer.”
(§6) The protocol of the studies was the same as that used for the study of the MMP activity of the non-stimulated skin explants, but with hyaluronane with a concentration of […] and the samples of oligosaccharides with a concentration of 10 μg/ml, added in the culture medium.

The test system of test [3] is MMP-2. Put plainly: MMP activity of skin fibroblasts stimulated with 1 mg/ml hyaluronane (zymography), expression of MMP-2. The note with it: 1 mg/ml of hyaluronane, 10 μg/ml, 24 hours (section b.2 fibroblasts; title says skin explants not stimulated). The text has this: (§7) Skin fibroblast from a skin of the belly of a person were cultivated until the 7th cellular passage in a DMEM Glutamax (GIBCO) medium containing 1% of antibiotics and of fungicide and 10% of fetal calf serum and were used for the experiment. The fibroblasts were inseminated on 6-well plates at a density of 5.10^4 cells per well. When at the confluence, the culture medium was replaced by a DMEM medium, without phenol red containing 0.1% of BSA and containing the different substances to be treated at a concentration of 10 μg/ml. After 24 hours of culture at 37° C. (5% (v/v) CO2, 95% (v/v) air) the samples were recovered.
(§8) As in the case of the cultures of skin explants, the culture media of the fibroblasts were studied with zymography.
a.2.2) MMP Activity of the Fibroblasts of Skin Stimulated with 1 mg/ml of Hyaluronane
The protocol of the studies is the same as that used for the study of the MMP activity of the non-stimulated fibroblasts of skin, but with hyaluronane with a concentration of 1 mg/ml and the samples of oligosaccharides with a concentration of 10 μg/ml, added in the culture medium.
(§9) When the fibroblasts are cultivated in monolayer, only the widely secreted MMP-2 is visible with a very low quantity of MMP-9, however, present.

Test [4] has as its system MMP-9. Put plainly: MMP activity of non-stimulated skin explants (gelatin zymography), MMP-9. The conditions noted are these: 10 μg/ml, 48 hours. On the procedure:
as §1, §2, §3, §4, §5

The subject of test [5] is MMP-2. Put plainly: MMP activity of non-stimulated skin fibroblasts in monolayer (zymography), expression of MMP-2. The note with it: 10 μg/ml, 24 hours (section b.2 fibroblasts; title says skin explants).
Text: as §7
Extracellular medium−1 ml of medium+2 rinsings with 0.25 ml of PBS
Intracellular medium−cellular carpet sonicated with 1 ml of MMP buffer
MMP Buffer composition 0.1 M Tris-HCl, pH 7.5, 0.1 M NaCl, 10 mM CaCl2, 1 mM zinc acetate
as §8, §9

Test [6] has as its system MMP-2. Put plainly: MMP activity of skin explants stimulated with hyaluronane (gelatin zymography), MMP-2. The conditions noted are these: skin explants stimulated with 1 mg/ml of hyaluronane, 10 μg/ml. On the procedure: as §1
as §5, with “computer. […]” for “computer.”
as §6

Molecules are shown by their SMILES.

Turning to `C[C@H](O)[C@@H](O)[C@@H](O)[C@H](O)C=O` [Fucose, fucose], the figures for the “Active/Inactive MMP-2 (active form/inactive form relationship of the enzyme)” value with MMP-2 [1] and with MMP-2 [6] were 0.80 and 1.65, respectively. Also, the “% of effectiveness: reduction of active/inactive relationship of MMP-2” value with MMP-2 [1] (vs control) stood at 6%. The “Active/Inactive MMP-9 (active form/inactive form relationship of the enzyme)” value amounted to 3.54 in the test on MMP-9 [2] and 2.38 in the test on MMP-9 [4]. Also, the “% effectiveness: reduction of active/inactive relationship of MMP-9” value in the test on MMP-9 [2] (vs control) worked out at 50%; in the test with MMP-9 [4] (vs control), 57%. Also, in the test on MMP-2 [3], the “% effectiveness: reduction of the expression of MMP-2 with respect to the control” value was determined as 11%. In addition, in the test on MMP-2 [5], the “% of effectiveness: reduction of the expression of MMP-2” value amounted to 6%. Besides, the “% effectiveness: reduction of active/inactive relationship of MMP-2” value in the test on MMP-2 [6] (vs control) is listed as “Ns”.

The record behind these values is patent US20040097464A1, “Mixture of non-sulfated fucose-based oligosaccharides, a cosmetic or pharmaceutical composition comprising said mixture and its use in cosmetics or pharmacy” (priority 2000, published 2004).
